Series [1] in a line: refractive index (Na D-line) (dimensionless). Conditions: 293.15 K; 101.33 kPa; Liquid; Standard Abbe refractometry.
The conditions of series [2]: Crystal; DSC.
Series [3] in a line: Molar enthalpy of transition or fusion. Particulars: Crystal; DSC.

Numbers after ± are expanded uncertainties.

Regarding `O` [water], in series [1], the refractive index is given as 1.3334 ± 0.002.

As for `CCCCO` [butan-1-ol], the refractive index in series [1] is listed as 1.3989 ± 0.002.

Consider `CCCC(C)=O` [pentan-2-one], for which, in series [1], the refractive index came to 1.3893 ± 0.002.

With `Cc1nnc(C(C)C)n1[C@@H]1C[C@H]2CC[C@@H](C1)N2CC[C@H](NC(=O)C1CCC(F)(F)CC1)c1ccccc1` [maraviroc], in series [2], the Triple point temperature was found to be 468.1 ± 1.2 K. Further, the “Molar enthalpy of transition or fusion” value in series [3] turned out to be 36.4 ± 3.7 kJ/mol.

`O=C(O)c1ccccc1` [benzoic acid]: the Triple point temperature in series [2] came out at 395.63 ± 1.2 K. Moreover, in series [3], the “Molar enthalpy of transition or fusion” value is 17.8 ± 1.8 kJ/mol.

For `CN(C)C=O` [dimethylformamide], the refractive index in series [1] came to 1.4309 ± 0.002.

As to `CCC(C)=O` [butanone], the refractive index in series [1] is 1.3787 ± 0.002.

For the molecule `CCCO` [propan-1-ol], the refractive index in series [1] is reported as 1.3854 ± 0.002.

Regarding `C[S+](C)[O-]` [dimethyl sulfoxide], in series [1], the refractive index came out at 1.4789 ± 0.002.

As to `O=C(Nc1c(Cl)cncc1Cl)c1ccc(OC(F)F)c(OCC2CC2)c1` [roflumilast], in series [2], the Triple point temperature worked out at 432.4 ± 1.2 K. Also, in series [3], the “Molar enthalpy of transition or fusion” value is 37.8 ± 3.9 kJ/mol.

On to `C1CCCCC1` [cyclohexane], for which the refractive index in series [1] was determined as 1.4235 ± 0.002.

With `CCO` [ethanol], the refractive index in series [1] came out at 1.361 ± 0.002.

(Values after the NIST ThermoML archive (doi:10.1021/acs.jced.9b00710).)
